From ChEMBL document CHEMBL5126611, “Design, Synthesis, and Biological Evaluations of Pyridyl 4,5,6,7-Tetrahydro-4,7-Methanobenzo[d]isoxazoles as Potent and Selective Inhibitors of 11β-Hydroxylase” (J Med Chem, 2022)
pIC50: −log10 of the molar value. Values after ≈ are worked out from the molar mass of the structure shown.

What was measured:
[1] = Cmax in Sprague-Dawley rat at 25 mg/kg, po measured up to 24 hrs by LC-MS analysis; assay type: ADME, organism-based; parameters: dose 25 mg/kg, time < 24 hrs, route po; settings: in vivo
[2] = Bioavailability in Sprague-Dawley rat at 5 mg/kg, iv measured up to 24 hrs by LC-MS analysis; assay type: ADME, organism-based; settings: in vivo
[3] = Cytotoxicity against Chinese hamster V79 cells assessed as reduction in cell viability; assay type: toxicity, cell-based, Cricetulus griseus; settings: read-out: LC50 (the source's name)
[4] = molecular target: T1, Cytochrome P450 11B1, mitochondrial (Homo sapiens, UniProt P15538); assay: Inhibition of human CYP11B1 expressed in Chinese hamster V79 MZh cells using [14C]-deoxycorticosteron as substrate measured after 6 hrs by phosphoimager analysis; assay type: ADME, cell-based
T1 sequence (P15538 whole entry): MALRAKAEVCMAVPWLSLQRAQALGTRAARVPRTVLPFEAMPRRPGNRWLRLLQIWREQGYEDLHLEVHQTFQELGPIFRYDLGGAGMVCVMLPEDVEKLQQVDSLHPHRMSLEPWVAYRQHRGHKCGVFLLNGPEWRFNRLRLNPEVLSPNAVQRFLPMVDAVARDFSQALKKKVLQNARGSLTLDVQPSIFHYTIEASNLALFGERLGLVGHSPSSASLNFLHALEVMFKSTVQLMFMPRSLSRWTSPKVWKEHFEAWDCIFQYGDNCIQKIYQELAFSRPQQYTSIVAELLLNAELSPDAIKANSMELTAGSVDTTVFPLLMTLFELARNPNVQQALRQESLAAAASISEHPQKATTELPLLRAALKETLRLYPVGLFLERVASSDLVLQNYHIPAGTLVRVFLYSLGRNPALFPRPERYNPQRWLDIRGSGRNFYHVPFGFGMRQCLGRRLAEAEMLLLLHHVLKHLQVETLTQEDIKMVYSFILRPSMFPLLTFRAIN

[5] = Clearance in Sprague-Dawley rat at 5 mg/kg, iv measured up to 24 hrs by LC-MS analysis; assay type: ADME, organism-based; settings: in vivo
[6] = Terminal half life in Sprague-Dawley rat at 25 mg/kg, po measured up to 24 hrs by LC-MS analysis; assay type: ADME, organism-based; settings: in vivo, read-out: beta t1/2 (converted)
[7] = AUC (0 to infinity) in Sprague-Dawley rat at 25 mg/kg, po measured up to 24 hrs by LC-MS analysis; assay type: ADME, organism-based; parameters: dose 25 mg/kg, time < 24 hrs, route po; settings: in vivo
[8] = AUC (0 to infinity) in Sprague-Dawley rat at 5 mg/kg, iv measured up to 24 hrs by LC-MS analysis; assay type: ADME, organism-based; parameters: time < 24 hrs, dose 5 mg/kg, route iv; settings: in vivo
Cytochrome P450 2C19 = Cytochrome P450 2C19 (Homo sapiens, UniProt P33261); assay: Inhibition of human hepatic recombinant CYP2C19 using cocktail of substrate by LC-MS/MS analysis; assay type: ADME
Cytochrome P450 2D6 = Cytochrome P450 2D6 (Homo sapiens, UniProt P10635); assay: Inhibition of human hepatic recombinant CYP2D6 using cocktail of substrate by LC-MS/MS analysis; assay type: ADME
[9] = Aqueous solubility of compound; assay type: physicochemical; settings: buffer
[10] = molecular target: T2, Cytochrome P450 11B1, mitochondrial (Rattus norvegicus, UniProt P15393); assay: Inhibition of rat CYP11B1; assay type: ADME
T2 sequence (P15393 whole entry): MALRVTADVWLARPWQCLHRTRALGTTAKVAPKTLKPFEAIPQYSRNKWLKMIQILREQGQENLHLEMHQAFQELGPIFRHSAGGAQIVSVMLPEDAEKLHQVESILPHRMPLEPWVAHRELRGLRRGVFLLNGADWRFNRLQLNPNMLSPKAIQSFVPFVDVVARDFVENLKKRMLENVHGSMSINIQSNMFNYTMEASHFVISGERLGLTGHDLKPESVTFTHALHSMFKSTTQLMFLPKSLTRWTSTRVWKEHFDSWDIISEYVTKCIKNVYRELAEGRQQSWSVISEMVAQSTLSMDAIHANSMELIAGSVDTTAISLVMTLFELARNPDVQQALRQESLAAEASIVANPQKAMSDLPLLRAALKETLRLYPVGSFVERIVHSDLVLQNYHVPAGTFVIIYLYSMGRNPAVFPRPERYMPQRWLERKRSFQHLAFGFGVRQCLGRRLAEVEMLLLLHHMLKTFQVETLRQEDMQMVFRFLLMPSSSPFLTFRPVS

Chain of Cytochrome P450 2D6 (P10635 whole entry): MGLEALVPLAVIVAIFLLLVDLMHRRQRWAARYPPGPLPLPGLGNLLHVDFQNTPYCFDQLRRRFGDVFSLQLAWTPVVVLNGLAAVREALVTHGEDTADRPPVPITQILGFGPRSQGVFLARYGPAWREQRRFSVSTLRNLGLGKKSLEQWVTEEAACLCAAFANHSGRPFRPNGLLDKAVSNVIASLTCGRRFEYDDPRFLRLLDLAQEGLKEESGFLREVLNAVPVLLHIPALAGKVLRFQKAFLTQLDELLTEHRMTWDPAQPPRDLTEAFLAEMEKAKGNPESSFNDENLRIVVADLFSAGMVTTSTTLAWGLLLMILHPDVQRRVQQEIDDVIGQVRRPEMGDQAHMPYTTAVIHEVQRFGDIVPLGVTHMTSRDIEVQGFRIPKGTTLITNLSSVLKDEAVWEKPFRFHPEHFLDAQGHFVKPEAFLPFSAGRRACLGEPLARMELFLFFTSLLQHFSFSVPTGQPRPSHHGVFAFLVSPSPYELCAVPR
Chain of Cytochrome P450 2C19 (P33261 whole entry): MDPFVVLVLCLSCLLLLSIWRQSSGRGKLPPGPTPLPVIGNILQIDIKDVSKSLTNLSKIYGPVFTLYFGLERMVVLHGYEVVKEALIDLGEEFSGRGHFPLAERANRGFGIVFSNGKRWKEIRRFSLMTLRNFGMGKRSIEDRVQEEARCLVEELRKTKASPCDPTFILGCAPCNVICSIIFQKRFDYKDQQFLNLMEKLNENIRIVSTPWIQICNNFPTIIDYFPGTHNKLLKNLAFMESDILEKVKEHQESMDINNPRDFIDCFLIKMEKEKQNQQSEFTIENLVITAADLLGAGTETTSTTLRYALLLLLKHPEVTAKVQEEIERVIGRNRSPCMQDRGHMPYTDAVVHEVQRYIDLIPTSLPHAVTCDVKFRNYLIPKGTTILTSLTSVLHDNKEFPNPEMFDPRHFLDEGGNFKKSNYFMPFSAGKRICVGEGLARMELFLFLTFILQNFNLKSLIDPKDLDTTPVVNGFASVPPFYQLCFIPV

For O=C(Nc1ccc2[nH]ncc2c1)[C@]12ON=C(c3cccnc3)[C@H]1[C@@H]1CC[C@H]2C1, which Cmax [1] is on record?
Its Cmax is 7990 ng/mL.

What about the bioavailability [2] of the same compound?
The bioavailability was 21.4%.

And the CC50 [3]?
The CC50 was > 50000 nM.

What about the pIC50 [4] of the same compound?
The pIC50 was 8.05.

And the CL [5]?
The CL was 0.287 mL/min/kg.

And the half-life [6]?
The half-life was 4.6 h.

And the AUC(0-inf) [7]?
The AUC(0-inf) was 54500 ng·h/mL.

And the AUC [8]?
The AUC was 50928.7 ng·h/mL.

What about the pIC50 (Cytochrome P450 2C19) of the same compound?
The pIC50 was < 5.00.

And the pIC50 (Cytochrome P450 2D6)?
The pIC50 was < 5.00.

What about the solubility [9] of the same compound?
The solubility was 196 µM (≈ 73.2 µg/mL).

What about the pIC50 [10] of the same compound?
Its pIC50 is 7.60.
